We go through 16 compounds from PubChem BioAssay (NCI).

Some test systems named below: A498 renal; SNB-19 CNS; K-562 leukemia; TK-10 renal; IGROV1 ovarian; MOLT-4 leukemia; OVCAR-8 ovarian; KM12 colon; HOP-92 NSCLC; HCT-15 colon; OVCAR-5 ovarian; HL-60(TB) leukemia; 786-0 renal; LOX IMVI melanoma; SNB-75 CNS.
Holding throughout (experiment): NCI anticancer screen, dose series, 48 h

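Interpolation was linear, between the two tested concentrations surrounding the appropriate level; five concentrations were tested over 48 hours in 96-well plates. At the TGI there is no net growth.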

Regarding `Cc1nc(N)c(-c2ccccc2)s1`, the TGI in the assay with A498 renal, with SNB-19 CNS, in the assay on K-562 leukemia, in the assay with TK-10 renal, in the assay with IGROV1 ovarian and in the assay with MOLT-4 leukemia was over 100 µM each time. The TGI in the assay with OVCAR-8 ovarian is over 100 µM; with KM12 colon, over 100 µM; in the assay with HOP-92 NSCLC, over 100 µM; in the assay with HCT-15 colon it was over 62.1 µM; in the assay on OVCAR-5 ovarian it was over 100 µM; in the assay with HL-60(TB) leukemia it was over 72.9 µM. Further, the TGI in the assay with 786-0 renal was over 100 µM; in the assay with LOX IMVI melanoma it was over 94.4 µM; with SNB-75 CNS, over 100 µM.

Regarding `CC(C)N(C(=O)C12C3C4C1C1C2C3C41I)C(C)C` (centres undefined), the TGI with A498 renal, with SNB-19 CNS, with K-562 leukemia, in the assay with TK-10 renal, in the assay with IGROV1 ovarian and in the assay on MOLT-4 leukemia was over 100 µM in each case. The TGI in the assay with OVCAR-8 ovarian, in the assay with KM12 colon, with HOP-92 NSCLC, in the assay with OVCAR-5 ovarian, in the assay with HL-60(TB) leukemia and in the assay with 786-0 renal was over 100 µM each time. The compound also gave a TGI in the assay with SNB-75 CNS of over 100 µM.

In the case of `COc1ccccc1-n1c(N)c2c(C)c(-c3ccccc3)[nH]c2nc1=S`, the TGI in the assay with A498 renal, in the assay with SNB-19 CNS, in the assay on K-562 leukemia, with TK-10 renal, in the assay on MOLT-4 leukemia and with OVCAR-8 ovarian was over 100 µM in each case. In addition, the TGI with KM12 colon, in the assay with HOP-92 NSCLC, in the assay with HCT-15 colon, in the assay with OVCAR-5 ovarian, with HL-60(TB) leukemia and with 786-0 renal was over 100 µM in each case. Also, the TGI with LOX IMVI melanoma and with SNB-75 CNS was over 100 µM in each case.

As to `O=C(Cc1ccc([N+](=O)[O-])c([N+](=O)[O-])c1CC(=O)C(=O)Nc1cc(Cl)ccc1Cl)C(=O)Nc1cc(Cl)ccc1Cl`, the TGI in the assay with A498 renal, with SNB-19 CNS, in the assay with K-562 leukemia, in the assay on TK-10 renal, in the assay on IGROV1 ovarian and in the assay on MOLT-4 leukemia was over 100 µM throughout. The TGI in the assay with OVCAR-8 ovarian was over 100 µM; with KM12 colon it was over 100 µM; in the assay with HOP-92 NSCLC it was over 100 µM; with HCT-15 colon, 45.1 µM; with OVCAR-5 ovarian, over 100 µM; with HL-60(TB) leukemia, over 100 µM. Also, the values for the TGI in the assay on 786-0 renal, with LOX IMVI melanoma and with SNB-75 CNS were over 100 µM, 65.9 µM and over 100 µM, respectively.

Regarding `CC/C(=N/O)c1ccc2[nH]c3c(C)cc([N+](=O)[O-])c(C)c3c2c1`, the TGI in the assay with SNB-19 CNS, with K-562 leukemia, with TK-10 renal, in the assay on MOLT-4 leukemia, with OVCAR-8 ovarian and in the assay with KM12 colon was over 100 µM each time. The TGI in the assay on HCT-15 colon, with OVCAR-5 ovarian, in the assay on HL-60(TB) leukemia, with 786-0 renal, in the assay on LOX IMVI melanoma and in the assay on SNB-75 CNS was over 100 µM each time.

As for `C/C(=N/NC(=O)C[n+]1ccccc1)C(CN(CC(C)C)CC(C)C)C(=O)Nc1ccc(C)cc1C` (centres undefined), the TGI in the assay with A498 renal is 92.9 µM; in the assay with SNB-19 CNS, over 100 µM; with K-562 leukemia it was over 100 µM; in the assay on TK-10 renal, over 100 µM; in the assay with IGROV1 ovarian, over 100 µM; in the assay on MOLT-4 leukemia, over 100 µM. Also, the TGI in the assay with OVCAR-8 ovarian, in the assay with HOP-92 NSCLC, in the assay with OVCAR-5 ovarian, with HL-60(TB) leukemia and in the assay with 786-0 renal was over 100 µM in each case.

Consider `O=C(N/N=C(/c1nc2ccc([N+](=O)[O-])cc2[nH]c1=O)C(O)c1ccc([N+](=O)[O-])cc1)c1ccncc1` (centres undefined), for which the TGI with A498 renal, in the assay on K-562 leukemia, in the assay with TK-10 renal, with IGROV1 ovarian, in the assay with MOLT-4 leukemia and in the assay on OVCAR-8 ovarian was over 100 µM throughout. Moreover, the TGI with KM12 colon, with HOP-92 NSCLC, in the assay with HCT-15 colon, with OVCAR-5 ovarian, with HL-60(TB) leukemia and in the assay on 786-0 renal was over 100 µM each time. Besides, the TGI with LOX IMVI melanoma and with SNB-75 CNS was over 100 µM each time.

As to `CC1(C)OCN(c2ccc(S(N)(=O)=O)cc2)Cn2c1nc1ccccc12`, the TGI in the assay with A498 renal, in the assay with SNB-19 CNS, in the assay on K-562 leukemia, in the assay on TK-10 renal, in the assay on IGROV1 ovarian and in the assay with MOLT-4 leukemia was over 100 µM in each case. The TGI with OVCAR-8 ovarian, in the assay with KM12 colon, with HOP-92 NSCLC, in the assay with HCT-15 colon, in the assay with HL-60(TB) leukemia and in the assay on 786-0 renal was over 100 µM throughout. The TGI in the assay on LOX IMVI melanoma and in the assay on SNB-75 CNS was over 100 µM in each case.

In the case of `CCOc1ccc(/C=C(\Cl)c2ccc(OC)cc2)cc1`, the TGI with A498 renal, in the assay on SNB-19 CNS, in the assay with K-562 leukemia, with IGROV1 ovarian, in the assay on MOLT-4 leukemia and in the assay on OVCAR-8 ovarian was over 100 µM in each case. In addition, the TGI in the assay with HOP-92 NSCLC, in the assay with HCT-15 colon, with HL-60(TB) leukemia, in the assay on 786-0 renal and in the assay on SNB-75 CNS was over 100 µM in each case.

As to `Cc1ccc(NC(=O)CSc2nnc(Cc3ccccc3)o2)cc1`, the TGI in the assay with A498 renal, with SNB-19 CNS, in the assay with K-562 leukemia, in the assay on TK-10 renal, with IGROV1 ovarian and in the assay with MOLT-4 leukemia was over 100 µM in each case. For the same compound, the TGI with OVCAR-8 ovarian, in the assay on KM12 colon, in the assay on HCT-15 colon, in the assay with OVCAR-5 ovarian, in the assay with 786-0 renal and in the assay with LOX IMVI melanoma was over 100 µM in each case. For the same compound, in the assay on SNB-75 CNS, the TGI is over 100 µM.

Regarding `CC12C(=C(C#N)C(=N)N1c1ccc(Cl)c(Cl)c1)C=C(O)CC2SCCS(=O)(=O)O` (centres undefined), the TGI with A498 renal, in the assay on SNB-19 CNS, in the assay on K-562 leukemia, in the assay with TK-10 renal, with IGROV1 ovarian and in the assay with MOLT-4 leukemia was over 100 µM throughout. Moreover, the TGI in the assay on OVCAR-8 ovarian, with KM12 colon, with HOP-92 NSCLC, with HCT-15 colon, in the assay with HL-60(TB) leukemia and in the assay with 786-0 renal was over 100 µM in each case. The TGI in the assay with LOX IMVI melanoma and in the assay with SNB-75 CNS was over 100 µM throughout.

For `N#C/C(=C\c1cc(O)ccc1O)C(N)=O`, the TGI was over 100 µM in the assay with A498 renal; over 100 µM in the assay on SNB-19 CNS; over 100 µM in the assay with K-562 leukemia; over 100 µM in the assay with TK-10 renal; over 100 µM with IGROV1 ovarian; 60.1 µM in the assay with MOLT-4 leukemia. The TGI with OVCAR-8 ovarian is over 100 µM; in the assay on KM12 colon, over 100 µM; in the assay with HOP-92 NSCLC, over 100 µM; in the assay with HCT-15 colon it was over 100 µM; in the assay with OVCAR-5 ovarian, over 100 µM; in the assay with HL-60(TB) leukemia it was 34.6 µM. Besides, the TGI with 786-0 renal is over 100 µM; in the assay with SNB-75 CNS, 90.8 µM.

As for `CCN(CC)CCC1(C2CCCCC2)CCC(=O)NC1=O` (centres undefined), the TGI in the assay on A498 renal, in the assay with SNB-19 CNS, in the assay on K-562 leukemia, with TK-10 renal, in the assay with IGROV1 ovarian and in the assay on MOLT-4 leukemia was over 100 µM throughout. The TGI in the assay on OVCAR-8 ovarian, in the assay on KM12 colon, in the assay with HCT-15 colon, in the assay with OVCAR-5 ovarian, in the assay on 786-0 renal and with LOX IMVI melanoma was over 100 µM throughout. The same compound yielded a TGI in the assay with SNB-75 CNS of over 100 µM.

In the case of `CCCCNC(=NCc1ccccc1)NC#N`, the TGI in the assay on A498 renal, in the assay with SNB-19 CNS, with TK-10 renal, in the assay with IGROV1 ovarian, in the assay on MOLT-4 leukemia and with OVCAR-8 ovarian was over 100 µM each time. The TGI in the assay on KM12 colon, with HOP-92 NSCLC, in the assay on HCT-15 colon, in the assay with OVCAR-5 ovarian, in the assay with HL-60(TB) leukemia and in the assay on 786-0 renal was over 100 µM throughout. In addition, the TGI in the assay with LOX IMVI melanoma and in the assay with SNB-75 CNS was over 100 µM throughout.

As for `C#CCNC(=O)NCCCCC(NC(C)=O)C(=O)NCc1ccccc1` (centres undefined), the TGI in the assay with A498 renal, in the assay on SNB-19 CNS, with K-562 leukemia, in the assay with TK-10 renal, in the assay on IGROV1 ovarian and with MOLT-4 leukemia was over 100 µM throughout. The TGI in the assay on OVCAR-8 ovarian, in the assay on KM12 colon, with HOP-92 NSCLC, with HCT-15 colon, in the assay on OVCAR-5 ovarian and with 786-0 renal was over 100 µM in each case. In addition, the TGI in the assay on LOX IMVI melanoma and in the assay on SNB-75 CNS was over 100 µM in each case.

As for `COc1ccccc1-n1c(NN)nc2ccc(Br)cc2c1=O`, the TGI was over 100 µM in the assay on SNB-19 CNS; over 100 µM with K-562 leukemia; 79.5 µM with TK-10 renal; over 100 µM in the assay with IGROV1 ovarian; over 100 µM in the assay on MOLT-4 leukemia; over 100 µM in the assay on OVCAR-8 ovarian. Moreover, the TGI in the assay with KM12 colon was over 100 µM; in the assay with HCT-15 colon, over 100 µM; with OVCAR-5 ovarian, 68.8 µM; in the assay on HL-60(TB) leukemia, 53.1 µM; in the assay on 786-0 renal, over 100 µM; in the assay on LOX IMVI melanoma it was over 100 µM. In the assay with SNB-75 CNS, the TGI was over 100 µM.
